Data from patent publication EP0361510B1, “Antitumor substance, process for preparing the same, and anticancer agent containing the same” (MEIJI SEIKA KAISHA LTD., priority 1988, dated 1990).
Values after ≈ are worked out from the molar mass of the structure shown. Like-named read-outs stand apart in the source and are kept apart here.

Assays:
[1] = system: Mouse leukemia P-388 cells; experiment: Cytotoxicity on P-388 cells (MTT assay); assay type: cell-based; settings: for IC₅₀: 72 hours incubation; for IC50: Mus musculus, P388, 72 hours incubation, read-out: IC₅₀
Protocol: Cytotoxicity of the compounds according to the present invention was determined by MTT assay in the following manner.
Mouse leukemia P-388 cells were suspended in RPMI medium supplemented with 10% fetal calf serum and this suspension was used to inoculate the 96-well microplate to give a cell concentration of 2 × 10³ cells/well. The compound shown in Table 2 was dissloved in RPMI medium and add to each well for the test group, while no compound was added to wells of the control group. Incubation was carried out at 37°C for 72 hours at 5% CO₂. Then, MTT (3-(4,5-dimethylthiazol-2-yl)-2,5-diphenyl tetrazolium bromide) was added to each well to cause formation of formazan. The resulting formazan was dissolved by adding sodium dodecyl sulfate. Absorbance at 577-630 nm of each well was measured by the ELISA analyzer and 50% ihibitory concentration (IC₅₀) of each compound was calculated from the absorbance ratio of the test group to the control group.

[2] = system: Mouse leukemia P-388 cells; experiment: Antitumor activity in mice transplanted intraperitoneally with P-388 cells; assay type: in vivo, BDF₁ mice; settings: intraperitoneal, 24 hours after transplantation, hydrochloride
Protocol: Antitumor activity of hydrochlorides of the compounds of the present invention was determined in the following manner.
Mouse leukemia P-388 cells maintained in the abdominal cavity of BDF₁ mouse were taken out and were suspended in physiological saline to give a cell concnetration of 1 × 10⁶ cells/0.2 mℓ. The cell suspension (0.2 mℓ) was transplanted to the abdominal cavity of 5-week-old male BDF₁ mice. The compounds of the present invention as shown in Table 3 was dissolved in 0.2 mℓ of physiological saline and was intraperitoneally administered to the mouse 24 hours after the transplantation of P-388 cells. No compound was administered to the mice of the control group. The T/C% value was calculated in accordance with the following formula. [formula]

[3] = Acute toxicity (LD50) in mice; settings: mouse, in vivo, hydrochloride, read-out: LD₅₀
Protocol: The hydrochlorides of the compounds of the present invention as shown in Table 4 were intraperitoneally or intravenously administered to mice and acute toxicity (LD₅₀) of each compound was measured.

[4] = mouse, i.v.; cited from earlier work

With “3′,11-O-diisobutyryl SF2587 [Compound 8]” the IC₅₀ [1] was 23.1 ng/mL, the “Anti-P388 Activity (T/C%)” value ([2]; Dose 2.5 mg/kg) was 113% and the “Anti-P388 Activity (T/C%)” value ([2]; Dose 5 mg/kg) was 144%. The “Anti-P388 Activity (T/C%)” value ([2]; Dose 10 mg/kg) was 175%, the “Anti-P388 Activity (T/C%)” value ([2]; Dose 20 mg/kg) was over 488% and the “Anti-P388 Activity (T/C%)” value ([2]; Dose 40 mg/kg) was 69%.
For 3′,11-O-divaleryl SF2587 [Compound 9], the IC₅₀ [1] was 34.3 ng/mL, the “Anti-P388 Activity (T/C%)” value ([2]; Dose 2.5 mg/kg) was 96% and the “Anti-P388 Activity (T/C%)” value ([2]; Dose 5 mg/kg) was 117%. For the same compound, the “Anti-P388 Activity (T/C%)” value ([2]; Dose 10 mg/kg) was 147%, the “Anti-P388 Activity (T/C%)” value ([2]; Dose 20 mg/kg) was 189% and the “Anti-P388 Activity (T/C%)” value ([2]; Dose 40 mg/kg) was 227%.
For 3′-O-Butyryl SF2587 [Compound 5], the IC₅₀ [1] was 17.8 ng/mL, the “Anti-P388 Activity (T/C%)” value ([2]; Dose 1.25 mg/kg) was 158% and the “Anti-P388 Activity (T/C%)” value ([2]; Dose 2.5 mg/kg) was 186%. For the same compound, the “Anti-P388 Activity (T/C%)” value ([2]; Dose 5 mg/kg) was 72%.
In the case of “3′-O-acetyl SF2587 Substance [Compound 1]”, the IC₅₀ [1] is reported as 19.4 ng/mL, the “Anti-P388 Activity (T/C%)” value ([2]; Dose 0.25 mg/kg) is reported as 124% and the “Anti-P388 Activity (T/C%)” value ([2]; Dose 0.5 mg/kg) is reported as 134%. The “Anti-P388 Activity (T/C%)” value ([2]; Dose 1.0 mg/kg) was 144%.
Compound 3′-O-isobutyryl SF2587 [Compound 7] has an IC₅₀ [1] of 55.2 ng/mL.
In the case of 3′-O-propionyl SF2587 [Compound 3], the IC₅₀ [1] is reported as 19.9 ng/mL.
Compound 11-O-Butyryl SF2587 [Compound 10] has an IC₅₀ [1] of 16.0 ng/mL.
For `CC(=O)Oc1c(C2CC(C)(N(C)C)C(OC(C)=O)C(C)O2)ccc2c1C(=O)c1c(cc(C)c3c(=O)cc(C4(C)OC4C4OC4C)oc13)C2=O` (centres unmarked) [Compound 2, 3′, 11-O-acetyl-SF2587], the IC50 [1] was 0.0231 µg/mL (≈ 0.0343 µM), the “Anti-P388 Activity (T/C%)” value ([2]; Dose 3.5 mg/kg) was 163% and the “Anti-P388 Activity (T/C%)” value ([2]; Dose 7 mg/kg) was over 200%. For the same compound, the “Anti-P388 Activity (T/C%)” value ([2]; Dose 14 mg/kg) was 70%, the LD50 ([3]; ip, injection route i.p.) was 16 mg/kg and the LD50 ([3]; iv, injection route i.v.) was 23.5 mg/kg.
For `CCC(=O)Oc1c(C2CC(C)(N(C)C)C(OC(=O)CC)C(C)O2)ccc2c1C(=O)c1c(cc(C)c3c(=O)cc(C4(C)OC4C4OC4C)oc13)C2=O` (centres unmarked) [Compound 4, 3′,11-O-dipropionyl SF2587], the IC50 [1] was 0.0181 µg/mL (≈ 0.0258 µM), the “Anti-P388 Activity (T/C%)” value ([2]; Dose 1.56 mg/kg) was 130% and the “Anti-P388 Activity (T/C%)” value ([2]; Dose 3.13 mg/kg) was 133%. The “Anti-P388 Activity (T/C%)” value ([2]; Dose 6.25 mg/kg) was 217%, the “Anti-P388 Activity (T/C%)” value ([2]; Dose 12.5 mg/kg) was over 449% and the “Anti-P388 Activity (T/C%)” value ([2]; Dose 25 mg/kg) was 71%. It also gave an LD50 ([3]; ip, injection route i.p.) of 40 mg/kg.
In the case of `CCCC(=O)Oc1c(C2CC(C)(N(C)C)C(OC(=O)CCC)C(C)O2)ccc2c1C(=O)c1c(cc(C)c3c(=O)cc(C4(C)OC4C4OC4C)oc13)C2=O` (centres unmarked) [Compound 6, 3′-11-O-dibutyryl SF2587], the IC50 [1] is reported as 0.0231 µg/mL (≈ 0.0317 µM), the “Anti-P388 Activity (T/C%)” value ([2]; Dose 1.25 mg/kg) is reported as 96% and the “Anti-P388 Activity (T/C%)” value ([2]; Dose 2.5 mg/kg) is reported as 113%. For the same compound, the “Anti-P388 Activity (T/C%)” value ([2]; Dose 5 mg/kg) was 144%, the “Anti-P388 Activity (T/C%)” value ([2]; Dose 10 mg/kg) was 186% and the “Anti-P388 Activity (T/C%)” value ([2]; Dose 20 mg/kg) was over 485%. It also gave an LD50 ([3]; ip, injection route i.p.) of 120 mg/kg.
For `Cc1cc2c(c3oc(C4(C)OC4C4OC4C)cc(=O)c13)C(=O)c1c(ccc(C3CC(C)(N(C)C)C(O)C(C)O3)c1O)C2=O` (centres unmarked) [SF2587], the LD₅₀ [4] is given as “about 5 mg/kg”.
